Data on 65 molecules can be found in the OPERA property sets (Mansouri et al. 2018).

The structures appear in SMILES notation. ≈ marks a conversion by molar mass, not a printed value.

The conditions of the first series: 25 °C.
Broadly, the solubility is the concentration that dissolves in the medium under given conditions. A low value points to a poorly soluble substance. `COC(C)C` registered a solubility of 877 mM (≈ 65000 µg/mL).

Molecule `COP(=S)(OC)SCCSC(C)C` had a solubility of 0.373 mM (≈ 97 µg/mL).

`CCc1cccc2ccccc12` returned a solubility of 0.0685 mM (≈ 10.7 µg/mL).

With `C=C(Cl)CSC(=S)N(CC)CC`, the solubility came to 0.447 mM (≈ 100 µg/mL).

`O=C(O)c1ccnc(C(=O)O)c1` showed a solubility of 14.9 mM (≈ 2490 µg/mL).

In turn, `C=C(C)CCC` showed a solubility of 0.927 mM (≈ 78 µg/mL).

In the case of `CNc1ccccc1`, the solubility was 52.4 mM (≈ 5620 µg/mL).

`CCCC(=O)OC`: the solubility amounted to 147 mM (≈ 15000 µg/mL).

`CCCOC(C)C` showed a solubility of 46 mM (≈ 4700 µg/mL).

`C=CCCCCCCC` had a solubility of 0.00887 mM (≈ 1.12 µg/mL).

With `CCCCP(=O)(CCCC)CCCC`, the solubility stood at 255 mM (≈ 55700 µg/mL).

`CCC(C)(C)CC` yielded a solubility of 0.0591 mM (≈ 5.92 µg/mL).

As to `CCC#CCC`, the solubility amounted to 6.8 mM (≈ 559 µg/mL).

On to `CN1CC(O)N(c2nnc(C(C)(C)C)s2)C1=O` (stereo not given), for which the solubility is 13.3 mM (≈ 3400 µg/mL).

`c1ccc2[nH]ccc2c1` yielded a solubility of 30.4 mM (≈ 3560 µg/mL).

As to `CCCCCCCBr`, the solubility was 0.0371 mM (≈ 6.64 µg/mL).

Take `CCOC(=O)c1c[nH]c(=S)[nH]c1=O`: the solubility amounted to 7.97 mM (≈ 1600 µg/mL).

In the case of `C[C@]12CCC(=O)C=C1CC[C@@H]1[C@@H]2CC[C@]2(C)C(=O)CC[C@@H]12`, the solubility amounted to 0.202 mM (≈ 57.8 µg/mL).

`CCC(C(=O)O)C(=O)O` gave a solubility of 5390 mM (≈ 712000 µg/mL).

Take `Cc1cccc2c(C)cccc12`: the solubility is 0.0175 mM (≈ 2.74 µg/mL).

In the case of `c1ccc2cc3cc4ccccc4cc3cc2c1`, the solubility stood at 6.61e-06 mM (≈ 0.00151 µg/mL).

`O=C(O)COc1ccccc1Cl` displayed a solubility of 6.86 mM (≈ 1280 µg/mL).

The molecule `CCC1(CC)C(=O)NC(=O)N(C)C1=O` had a solubility of 9.99 mM (≈ 1980 µg/mL).

Take `Clc1ccc(-c2ccccc2)c(Cl)c1`: the solubility was found to be 0.00515 mM (≈ 1.15 µg/mL).

On to `C=CCN(CC=C)C(=O)CCl`, for which the solubility was 113 mM (≈ 19700 µg/mL).

The molecule `Cc1c2ccccc2cc2ccccc12` had a solubility of 0.00136 mM (≈ 0.261 µg/mL).

Consider `C=CCC1(C(C)C)C(=O)NC(=O)NC1=O`, for which the solubility was found to be 19.4 mM (≈ 4080 µg/mL).

Molecule `Fc1ccccc1CCl` displayed a solubility of 2.88 mM (≈ 416 µg/mL).

With `O=C(O)c1ccsc1`, the solubility is 33.6 mM (≈ 4300 µg/mL).

The molecule `CCCN(CCC)C(=O)SCC` returned a solubility of 1.98 mM (≈ 375 µg/mL).

`O=C(O)CCI` had a solubility of 372 mM (≈ 74300 µg/mL).

In the case of `O=C(O)c1ccccc1C(=O)Nc1cccc2ccccc12`, the solubility was found to be 0.687 mM (≈ 200 µg/mL).

For `ClCCCBr`, the solubility came out at 14.2 mM (≈ 2240 µg/mL).

In turn, `CC1=CCCCC1` registered a solubility of 0.541 mM (≈ 52 µg/mL).

`C=Cc1ccccc1`: the solubility came to 2.98 mM (≈ 310 µg/mL).

For the molecule `C#C[C@]1(OC(C)=O)CC[C@H]2[C@@H]3CCC4=CC(=O)CC[C@@H]4[C@H]3CC[C@@]21C`, the solubility was 0.0161 mM (≈ 5.47 µg/mL).

The molecule `Fc1ccc(I)cc1` returned a solubility of 0.749 mM (≈ 166 µg/mL).

In turn, `N#CNC(=N)N` gave a solubility of 491 mM (≈ 41300 µg/mL).

For the molecule `O=C(O)c1ccccc1`, the solubility stood at 24.8 mM (≈ 3030 µg/mL).

`COc1ccc2c(c1)c(CC(=O)O)c(C)n2C(=O)c1ccc(Cl)cc1`: the solubility turned out to be 0.00262 mM (≈ 0.937 µg/mL).

In turn, `CCCCC1(CC)C(=O)NC(=O)NC1=O` gave a solubility of 23 mM (≈ 4880 µg/mL).

As to `Clc1cccc(-c2cccc(Cl)c2)c1`, the solubility stood at 0.00159 mM (≈ 0.355 µg/mL).

Take `O=C(O)c1ccc([N+](=O)[O-])c([N+](=O)[O-])c1`: the solubility was determined as 31.6 mM (≈ 6700 µg/mL).

In turn, `CCCC(=O)CCC` had a solubility of 28 mM (≈ 3200 µg/mL).

With `Fc1cc(F)c(F)c(F)c1`, the solubility stood at 4.95 mM (≈ 742 µg/mL).

`COc1cc(-c2ccc(N)c(OC)c2)ccc1N` yielded a solubility of 0.246 mM (≈ 60 µg/mL).

For the molecule `Clc1ccc(Cl)c(-c2ccccc2)c1`, the solubility was 0.00502 mM (≈ 1.12 µg/mL).

On to `CCOC(=O)C(C)N(C(=O)c1ccccc1)c1ccc(Cl)c(Cl)c1` (stereo not given), for which the solubility stood at 0.0546 mM (≈ 20 µg/mL).

`O=C(O)C(=O)Nc1ccccc1` came in with a solubility of 49.9 mM (≈ 8240 µg/mL).

Turning to `CC(C)(C)C(=O)OCC(=O)[C@@]1(O)CC[C@H]2[C@@H]3CCC4=CC(=O)C=C[C@]4(C)[C@H]3[C@@H](O)C[C@@]21C`, the solubility was 0.0261 mM (≈ 11.6 µg/mL).

`Cc1ccc(C)nc1`: the solubility came to 1530 mM (≈ 164000 µg/mL).

Molecule `N[C@@H](Cc1cnc[nH]1)C(=O)O` displayed a solubility of 294 mM (≈ 45600 µg/mL).

Molecule `COP(=O)(Oc1ccccc1)Oc1ccccc1` registered a solubility of 7.57 mM (≈ 2000 µg/mL).

`CN1C(=O)C(C)(C2=CCCCC2)C(=O)N=C1O` (stereo not given) registered a solubility of 1.84 mM (≈ 435 µg/mL).

Still in this series, the particulars now being: 27 °C.
In turn, `Cc1c(C)c2c3ccccc3ccc2c2ccccc12` returned a solubility of 9.75e-05 mM (≈ 0.025 µg/mL).

`C#C[C@]1(O)CC[C@H]2[C@@H]3CCC4=CC(=O)CC[C@]4(C)[C@H]3CC[C@@]21C`: the solubility was determined as 0.0022 mM (≈ 0.687 µg/mL).

With `CCCCOC=O`, the solubility worked out at 74 mM (≈ 7560 µg/mL).

Molecule `c1cc2c3c(c1)ccc1cccc(c13)C2` had a solubility of 0.00578 mM (≈ 1.1 µg/mL).

The series is the same for the next values; noted with them: 28 °C.
With `CCOC(=O)[C@H](Cc1ccccc1)NC(C)=O`, the solubility was found to be 17.6 mM (≈ 4130 µg/mL).

The series is the same for the next values; noted with them: 30 °C.
`COC(=O)[C@H]1[C@H]2C[C@@H]3c4[nH]c5cc(OC)ccc5c4CCN3C[C@H]2C[C@@H](OC(=O)c2cc(OC)c(OC)c(OC)c2)[C@@H]1OC`: the solubility was 0.12 mM (≈ 73 µg/mL).

In turn, `CC1=CC(=O)c2ccccc2C1=O` returned a solubility of 0.929 mM (≈ 160 µg/mL).

Take `CN(C)CCN(Cc1ccccc1)c1ccccn1`: the solubility stood at 2.3 mM (≈ 587 µg/mL).

In the case of `CN(C)CCN(Cc1cccs1)c1ccccn1`, the solubility is 2.3 mM (≈ 601 µg/mL).

`CCN(CC)CCOC(=O)c1ccc(N)cc1` registered a solubility of 40 mM (≈ 9450 µg/mL).

Molecule `COc1ccc2ccc(=O)oc2c1CC=C(C)C` came in with a solubility of 0.0491 mM (≈ 12 µg/mL).
